Results on four molecules are retold here after publication PMC2112634 (The Journal of Cell Biology, 1983).

The subject of test [1] is CCK-binding sites on rat pancreatic acinar cells. It counts as cell-based.
Test [2] addresses T1, CCK-binding sites on rat pancreatic plasma membranes (Rattus norvegicus, UniProt P30551).
T1 sequence (P30551 1-444): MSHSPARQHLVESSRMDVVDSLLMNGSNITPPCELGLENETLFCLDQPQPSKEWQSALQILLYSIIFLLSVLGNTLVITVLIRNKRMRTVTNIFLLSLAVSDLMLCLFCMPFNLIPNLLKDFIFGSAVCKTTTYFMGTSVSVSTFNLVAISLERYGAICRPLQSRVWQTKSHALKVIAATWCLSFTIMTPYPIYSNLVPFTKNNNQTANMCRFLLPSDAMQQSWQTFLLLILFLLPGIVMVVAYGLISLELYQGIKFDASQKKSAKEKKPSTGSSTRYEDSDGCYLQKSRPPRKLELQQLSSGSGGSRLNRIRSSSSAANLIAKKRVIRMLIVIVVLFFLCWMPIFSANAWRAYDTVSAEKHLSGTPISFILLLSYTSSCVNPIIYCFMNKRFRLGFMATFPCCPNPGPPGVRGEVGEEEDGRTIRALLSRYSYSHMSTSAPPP
Description: Competitive inhibition of 125I-CCK-33 binding to pancreatic plasma membranes.

The conditions of test [3]: 125I-labeled Bolton-Hunter reagent; cited from earlier work.
The subject of test [4] is CCK-binding sites on rat pancreatic acinar cells. Description: Light microscopic autoradiography of pancreatic acini. It counts as cell-based. To be noted: ~0.1 nM 125I-CCK-33, 15 min at 37C; Fig. 2a; similar results at 2 min.
In test [5] the test system is rabbit anti-CCK IgG (antiserum No. L-48). Description: Affinity labeling of anti-CCK antibodies. It counts as binding. The note with it: 0.07 nM 125I-CCK-33, 24 h at 4C, 1 mM DSS; Fig. 1 lane a.
For test [6], the target named is T2, CCK-binding site (Mr 85,000 protein) of rat pancreatic plasma membranes (Rattus norvegicus, UniProt P30551).
T2 sequence (P30551 1-444): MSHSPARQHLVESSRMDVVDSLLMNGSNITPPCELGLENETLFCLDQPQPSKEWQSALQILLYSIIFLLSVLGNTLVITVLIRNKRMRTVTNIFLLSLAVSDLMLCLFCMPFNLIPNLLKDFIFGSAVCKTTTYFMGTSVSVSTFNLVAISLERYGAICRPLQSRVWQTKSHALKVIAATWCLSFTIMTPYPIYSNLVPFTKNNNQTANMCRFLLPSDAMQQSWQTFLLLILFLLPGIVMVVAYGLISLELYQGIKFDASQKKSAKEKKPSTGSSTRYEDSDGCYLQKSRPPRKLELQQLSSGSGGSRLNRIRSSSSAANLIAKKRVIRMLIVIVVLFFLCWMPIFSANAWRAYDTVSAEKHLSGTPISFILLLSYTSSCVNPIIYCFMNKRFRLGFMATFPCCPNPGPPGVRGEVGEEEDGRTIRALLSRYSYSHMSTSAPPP
Description: Affinity labeling. To be noted: micromolar concentrations of competitor; unpublished results.

For test [7], the system named is CCK receptors of mouse pancreatic acini. The note with it: electron microscopic autoradiography; cited from earlier work.
The test system of test [8] is CCK receptor in rat pancreatic acini. The note with it: rat pancreatic acinar cell; cited from earlier work.
The test system of test [9] is CCK-binding sites of rat pancreatic plasma membranes. To be noted: ultraviolet irradiation cross-linking; cited from earlier work.
[10] abbreviates: 0.1 nM 125I-CCK-33, 2 or 15 min, 37C, % of total grains.
Where [11] appears, read: 2 min, 37C, 0.1 nM 125I-CCK-33, mean ± SEM, 17 micrographs, Table I.
Setting [12] is: 15 min, 37C, 0.1 nM 125I-CCK-33, mean ± SEM, 18 micrographs, Table I.

Like-named read-outs stand apart in the source and are kept apart here.

Take “125I-CCK-33: CCK-33 acylated with 125I-labeled Bolton-Hunter reagent (KAPSGRVSMIKNLQSLDPSHRISDRDYMGWMDF; Cholecystokinin-33 125I-Bolton-Hunter labeled; UniProt P01356 70-102, looked up)”: in test [1] (setting [10]), the “grains over cytoplasm (summary)” value is recorded as ~ 30%; the “grains over embedding medium (summary)” value is recorded as 5- 8%; the “grains over nucleus (summary)” value is given as 1-2%; the “grains within 1 HD of the lateral and basal plasmalemma” value is on record as “approximately 60%”. In [1] (setting [11]), the “Basal PM grain density” value is recorded as 2.57 0.08 grains/µm2; the “Cytoplasm, % total grains” value worked out at 34.0 ± 1.3 % total grains; the “Lateral PM grain density” value is reported as 1.10 0.05 grains/µm2; the “Lateral PM, % total grains” value was found to be 12.1 ± 0.4 % total grains. For the same molecule, the “distribution of grains at 4C” value in test [1] (2 min or 15 min at 4C, data not shown, compared with 37C) is “Qualitatively similar results”. The “relative grain density over cytoplasm or nucleus compared to embedding medium” value in test [1] (15 min, 37C) was “no statistically significant increase”. For the same molecule, in test [1] (setting [12]), the “Apical PM grain density” value is 0.11 ± 0.02 grains/µm2; the “Apical PM, % total grains” value came to 0.1 % total grains; the “Basal PM grain density” value is 2.46 0.11 grains/µm2; the “Basal PM, % total grains” value was 34.8 0.6 % total grains. In [1] (setting [12]), the “Cytoplasm, % total grains” value turned out to be 30.0 ± 0.8 % total grains; the “Embedding medium, % total grains” value is listed as 8.1 0.6 % total grains; the “Lateral PM grain density” value is on record as 2.32 0.07 grains/µm2; the “Lateral PM, % total grains” value amounted to 25.5 ± 0.6 % total grains. In test [1] (autoradiography, 125I-CCK-33), the “specific binding sites on centroacinar or ductular cells” value is given as “no apparent specific”. Moreover, the “relative grain density over cytoplasm and nucleus (summary)” value in test [1] (either time point, 37C) is on record as “never exceeded unity”. Besides, the “peptide released from binding sites during cross-linking and subsequent washing” value in test [2] is less than 5%. Also, the “secretagogue activity after Bolton-Hunter acylation” value in test [3] was “retention of secretagogue activity”. In [4], the “distribution of autoradiographic grains (light microscopy)” value is “primarily delineated the basal and lateral boundaries of the acinar cells”. In addition, the “labeling of heavy and light chains of anti-CCK IgG” value in test [5] is “labeling of the heavy and light chains of anti-CCK IgG was obtained”.

With “insulin: polypeptide hormone tested at micromolar concentration as specificity control”, the “effect on labeling of membrane proteins by 125I-CCK-33” value in test [6] is reported as “unaffected”.

Take “secretin: peptide tested at micromolar concentration as specificity control”: the “effect on labeling of membrane proteins by 125I-CCK-33” value in test [6] is “unaffected”.

B1: cholecystokinin (peptide, UniProt P06307 21-115, looked up)
Cholecystokinin: QPVPPADPAGSGLQRAEEAPRRQLRVSQRTDGESRAHLGALLARYIQQARKAPSGRMSIVKNLQNLDPSHRISDRDYMGWMDFGRRSAEEYEYPS
modifications: Cholecystokinin
Consider B1, for which the “localization of CCK receptors” value in test [7] is “localized to the basolateral plasmalemma of mouse pancreatic acini”. In addition, in [8], the “high affinity binding sites per cell” value is reported as “approximately 650 binding sites per cell” and the “low affinity binding sites per cell” value is ~100,000 binding sites per cell. Also, in test [9], the “Mr of specifically labeled polypeptide” value is 76,000.
